Reference: the supplement of paper PMC10290057
Structures can show the parent of a compound that is named as a salt.

system: HCT116; assay: efficacy (fitted maximal change in viability relative to DMSO control); higher = less cytotoxic (negative = loss of viability); conditions: 48 h
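Also: Luminescence-based viability readout, five doses per compound, normalized against on-plate DMSO and empty-well controls, followed by dose-response curve fitting for every drug.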

Row | Structure (SMILES) | efficacy
1 | C[C@H]1CC[C@H](n2c3cnccc3c3cnc(Nc4ccc5c(n4)CCN(C(=O)CO)C5)nc32)CC1 [AMG-925 (FLX925)] | -21.6%
2 | COc1ccc(C(=O)N2CCN(C(=O)/C=C/c3ccc(Br)cc3)CC2)cc1 [NIBR-189] | -15.1%
3 | O=C1Nc2ccc(I)cc2/C1=C/c1cc(Br)c(O)c(Br)c1 [GW-5074] | -38%
4 | CC1=CC=CC=C1N2\C(=N/C3=C(C(=CC=C3)C)C2=O)C[N]4C=NC5=C4N=CN=C5N | -13.6%
5 | CC(=O)Nc1ccc(O)cc1 [Acetaminophen] | 8.22%
6 | CCc1cc(Nc2nccc(-c3c(-c4ccc(OC)c(C(=O)Nc5c(F)cccc5F)c4)nc4ccccn34)n2)c(OC)cc1N1CCC(N2CCN([S+](C)(=O)[O-])CC2)CC1 | -21%
7 | CCCCCCCCCCCCCCCCOCCCO[P](O)(=O)COC(CO)CN1/C=C\C(=N/C1=O)N (configuration not stated) [Brincidofovir] | -6.44%
8 | CC(C)(C#N)c1cc(Cn2cncn2)cc(C(C)(C)C#N)c1 [Anastrozole] | -11.5%
9 | CCC[C@@H]1C[C@@H](C(=O)N[C@@H]([C@H]2O[C@H](SC)[C@H](O)[C@@H](O)[C@H]2O)[C@H](C)Cl)N(C)C1 [Clindamycin HCl] | -14.1%
10 | O=C([O-])Cc1ccccc1Nc1c(Cl)cccc1Cl [Diclofenac sodium] | -6.7%
11 | N[C@@H]1CONC1=O [D-Cycloserine] | -29.8%
12 | N[C@@H](Cc1c[nH]c2ccc(O)cc12)C(=O)O [5-Hydroxytryptophan] | -7.82%
13 | O=C1NC(=O)/C(=C/c2ccc(-c3ccc(F)cc3O)o2)S1 | -29.8%
14 | CN(CCOc1ccc(CC2SC(=O)NC2=O)cc1)c1ccccn1 (configuration not stated) [Rosiglitazone] | -13.8%
15 | Cc1ccsc1C(=CCCN1CCC[C@@H](C(=O)O)C1)c1sccc1C [Tiagabine hydrochloride] | -8.94%
16 | O=C1CC[C@H](N2Cc3c(OCc4ccc(CN5CCOCC5)cc4)cccc3C2=O)C(=O)N1 [Iberdomide] | -18.8%
17 | O=C(Nc1cccc(C(F)(F)F)c1)c1cccc2cc(Oc3cc(CO)ncn3)ccc12 [BFH-772] | 15.5%
18 | N[S+](=O)([O-])c1cc2c(cc1Cl)NCN[S+]2(=O)[O-] [Hydrochlorothiazide] | 7.16%
19 | CC(C)(O)C(=O)Nc1ccc([N+](=O)[O-])c(C(F)(F)F)c1 [Hydroxyflutamide] | -27.7%

Row | Structure (SMILES) | efficacy
20 | N=C(N)Nc1ccc(C(=O)Oc2ccc3cc(C(=N)N)ccc3c2)cc1 [Nafamostat mesilate] | -24.8%
21 | CC(=O)OCC(CCn1cnc2cnc(N)nc21)COC(C)=O [Famciclovir] | -14.2%
22 | CNC[C@H](O)c1ccc(O)c(O)c1 [Epinephrine] | -17.8%
23 | CN(C)c1ccc2nc3ccc(N(C)C)cc3[s+]c2c1.[Cl-] [Methylene blue] | -96.6%
24 | CC(C)(C)C#Cc1cc(N(C(=O)[C@H]2CC[C@H](C)CC2)[C@H]2CC[C@@H](O)CC2)c(C(=O)O)s1 [VX-222] | -59.3%
25 | C[C@@H]1C(=O)OC2[C@H](O)[C@]34[C@H]5C[C@@H](C(C)(C)C)[C@]36[C@@H](OC(=O)[C@@H]6O)O[C@@]4(C(=O)O5)[C@]21O (some centres not stated) [Ginkgolide B] | -9.74%
26 | Nc1nc(OC(c2ccc(-c3cccc(F)c3)cc2)C(F)(F)F)cc(-c2ccc(C[C@H](N)C(=O)O)cc2)n1 (some centres not stated) | -21.2%
27 | CC1(C)CNc2cc(NC(=O)c3cccnc3NCc3ccncc3)ccc21 [Motesanib] | 10.7%
28 | CN(C)CCOC(c1ccccc1)c1ccccc1 [Diphenhydramine hydrochloride] | -12.9%
29 | Cc1cnc(-c2cc(N3CCN(C(=O)CC[S+](C)(=O)[O-])CC3)ncc2Cl)c(C)c1 | -93.8%
30 | N[C@@H]1C[C@H]1c1ccccc1 [Tranylcypromine] | -9.58%
31 | C[C@H]1CN(C[C@@H](C)N1)C2=C(F)C3=C(C(=C2F)N)C(=O)\C(=C/N3C4CC4)C(O)=O [Sparfloxacin] | -10.7%
32 | COC(c1ccccc1)(c1ccccc1)[C@H](Oc1nc(C)cc(C)n1)C(=O)O [Ambrisentan] | -8.06%
33 | O=C(O)CNC(=O)C1C(=O)N(C2CCCCC2)C(=O)N(C2CCCCC2)C1=O [Daprodustat] | -6.36%
34 | CCOc1ccccc1N/N=C1/C(=O)N(c2nc(-c3ccccc3)cs2)N=C1C [BAM-7] | -7.98%
35 | N#C[C@@H]1C[C@@H]2C[C@@H]2N1C(=O)[C@@H](N)C12CC3CC(CC(O)(C3)C1)C2 [Saxagliptin] | -9.01%
36 | Cn1cc(C[C@@H](N)C(=O)O)c2ccccc21 [Indoximod] | -9.77%
37 | C=C(C)[C@@H]1CC[C@]2(C(=O)O)CC[C@]3(C)[C@H](CC[C@@H]4[C@@]5(C)CC[C@H](O)C(C)(C)[C@@H]5CC[C@]43C)[C@@H]12 [Betulinic acid] | 14.5%
